# Measured values reported in US20230285261A1, “FRAGRANCE COMPOSITION COMPRISING A FRAGRANCE COMPONET AND A NON-ODOROUS FRAGRANCE MODULATOR” (Coty Inc., priority 2020, published 2023).
# Text: Classical perfume contain a high % of ethanol to solubilize perfume raw materials.
smiles,measurement,value
"C[C@@H]1CC[C@H]2C(C)(C)[C@H]3C[C@@]12CC[C@@]3(C)O [Cerdol Crystals, Cedrol Crystals]",Max Solubility in 83% Ethanol/17% Glucam solution,0.431 g
same,Max Solubility in 88% Ethanol/12% Water solution,0.273 g
same,"solubility increase, glucam-containing vs classical ethanol solution",57.8%
